This is an account of results in publication PMC3583349 (Pest management science, 2012).

Where two headings read alike, the source gives them in different places.

Data set [1] has as its target T1, CpGSTD2 (Culex pipiens, UniProt H9M8E4).
T1 sequence (H9M8E4 1-214): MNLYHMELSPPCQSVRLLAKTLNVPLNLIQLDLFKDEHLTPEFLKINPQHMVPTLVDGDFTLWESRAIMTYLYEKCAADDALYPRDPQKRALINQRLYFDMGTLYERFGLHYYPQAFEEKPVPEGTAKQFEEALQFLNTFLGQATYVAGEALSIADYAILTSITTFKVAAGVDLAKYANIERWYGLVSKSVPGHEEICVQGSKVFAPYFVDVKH
In words: Permethrin metabolism assay. In kind it is biochemical. To be noted: for Ratio of the area under the curve relative to lambda cyhalothrin: after 2 h incubation at 30°C with CpGSTD2, 1 μM permethrin, HPLC.

The target of data set [2] is T2, CpGSTD1 (Culex pipiens, UniProt H9M8E3).
T2 sequence (H9M8E3 1-211): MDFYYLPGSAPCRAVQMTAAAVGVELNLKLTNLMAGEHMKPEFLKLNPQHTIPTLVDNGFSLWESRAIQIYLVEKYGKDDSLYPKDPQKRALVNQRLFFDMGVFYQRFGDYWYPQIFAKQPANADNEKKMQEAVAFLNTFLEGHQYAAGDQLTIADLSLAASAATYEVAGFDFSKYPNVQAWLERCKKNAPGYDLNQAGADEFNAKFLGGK
Kind of data set: Permethrin metabolism assay. In kind it is biochemical. Conditions: for Ratio of the area under the curve relative to lambda cyhalothrin: after 2 h incubation at 30°C with CpGSTD1, 1 μM permethrin, HPLC.

Data set [3] deals with T1, CpGSTD2.
Data set [4] has as its target T2, CpGSTD1. To be noted: pH 6.5.
The target in data set [5] is T2, CpGSTD1. In words: Peroxidase activity assay with CMHP, CpGSTD1. Conditions: 0.125 to 1.0 mM CMHP, 7.5 mM reduced GSH, 25°C, pH 6.5. In kind it is biochemical.
The target of data set [6] is T1, CpGSTD2. Kind of data set: Peroxidase activity assay with CMHP, CpGSTD2. Type of data set: biochemical. To be noted: pH 7.5; conditions where a rate of at least 0.1 μmol min^−1 mg^−1 could be detected with CpGSTD1.
For data set [7], the target named is T1, CpGSTD2. The source holds these as a separate data set.
The next data set deals with AgGSTD1-6. To be noted: cited from earlier work.
The target of data set [8] is T2, CpGSTD1. Conditions: for Km: pH 6.5.
For another data set, the system named is AdGSTD1-1. To be noted: cited from earlier work.
Data set [9] has as its target T2, CpGSTD1. Kind of data set: biochemical.
Data set [10] addresses T1, CpGSTD2. In words: biochemical.
Another data set deals with GST-2. To be noted: cited from earlier work.
For the next data set, the system named is GST-1b. Conditions: cited from earlier work.
The target in data set [11] is T2, CpGSTD1. In words: DDT dehydrochlorination assay, CpGSTD1. Conditions: over a period of 2 h, 1 μM DDT, 15 mM reduced GSH, 30°C, pH 6.5, HPLC. In kind it is biochemical.
Substrate in data set [12]: O=[N+]([O-])c1ccc(Cl)c(Cl)c1
Kind of data set: purified protein, by the assay type. To be noted: pH 7.5; 30.0 °C.

Where [13] appears, read: 2 h, 30°C, conditions where a rate of 7 pmol min^−1 mg^−1 could have been reliably detected.
[14] abbreviates: varying substrate 7.8 to 750 μM, 5 mM reduced GSH, 30°C, pH 7.5.

`CC1(C)[C@H](C(=O)OCc2cccc(Oc3ccccc3)c2)[C@@H]1C=C(Cl)Cl` [cis-permethrin]: the “Ratio of the area under the curve relative to lambda cyhalothrin” value on CpGSTD2 [1] is given as 0.51 ± 0.03; at CpGSTD1 [2] it was 0.47 ± 0.02.

For `CC1(C)C(C=C(Cl)Cl)C1C(=O)OCc1cccc(Oc2ccccc2)c1` (centres unmarked) [permethrin], the metabolism of permethrin entry on CpGSTD2 [1] (setting [13]) and at CpGSTD1 [2] (setting [13]) was “neither CpGSTD1 nor CpGSTD2 are able to metabolize” in each case.

For `CC1(C)[C@H](C=C(Cl)Cl)[C@H]1C(=O)OCc1cccc(Oc2ccccc2)c1` [trans-permethrin], the entries for the “Ratio of the area under the curve relative to lambda cyhalothrin” value on CpGSTD2 [1] and on CpGSTD1 [2] were 0.29 ± 0.02 and 0.24 ± 0.01, respectively.

What is called IC50 is the midpoint of a concentration-inhibition curve. Take `CCCCCCSC[C@H](NC(=O)CC[C@H](N)C(=O)O)C(=O)NCC(=O)O` [S-hexyl glutathione, S-hexylglutathione]: the IC50 against CpGSTD2 [3] stood at 0.24 µM; against CpGSTD2 [3] (pH 7.5), 0.24 ± 0.01 µM; against CpGSTD1 [4] it was 68 ± 3 µM.

With `CC(C)(OO)c1ccccc1` [CMHP, cumene hydroperoxide], the “rate of CMHP reduction (peroxidase activity)” value on CpGSTD1 [5] was found to be 1.6 µmol/min/mg. On CpGSTD2 [6], the “activity towards CMHP (peroxidase activity)” value is on record as “no detectable activity”.

Broadly, the kcat is the number of substrate molecules converted per active site and unit of time at saturation. By Km is commonly meant the concentration of substrate that gives half-maximal velocity. By Vmax is commonly meant the rate approached at saturating substrate. Turning to `O=[N+]([O-])c1ccc(Cl)c([N+](=O)[O-])c1` [CDNB, 1-chloro-2,4-dinitrobenze], the kcat on CpGSTD2 [7] (5 mM reduced GSH, 30°C, pH 7.5) turned out to be 7.0 s⁻¹. The “catalytic efficiency (kcat/KM) higher with CDNB than with DCNB” value at CpGSTD2 [7] (CpGSTD2) and at CpGSTD1 [8] (CpGSTD1) was “at least 100 fold” throughout. The “turnover of CDNB faster than DCNB” value is “about 18 fold” on CpGSTD2 [7] (CpGSTD2, CDNB versus DCNB) and “about 230 fold” at CpGSTD1 [8] (CpGSTD1, CDNB versus DCNB). Further, the results for the Km on CpGSTD2 [7] (setting [14]) and on CpGSTD1 [8] were 30 ± 2 µM and 140 ± 10 µM, respectively. Moreover, the Vmax at CpGSTD2 [7] (setting [14]) came out at 18 ± 0.2 µmol/min/mg. Also, the “catalytic efficiency ratio (kcat/KM)” value with AgGSTD1-6 is 790000 M⁻¹ s⁻¹; in the data set with AdGSTD1-1, 48000 M⁻¹ s⁻¹. Moreover, the “turnover of CDNB by CpGSTD1 faster than by CpGSTD2” value at CpGSTD1 [8] (CpGSTD1 versus CpGSTD2) was “about 3 fold”.

Turning to `O=C(/C=C/c1ccc(O)cc1)c1ccccc1` [4-hydroxy chalcone, 4-hydroxychalcone], the results for the IC50 at CpGSTD1 [9] and at CpGSTD2 [10] were 16 ± 1 µM and 5 ± 0.2 µM, respectively.

As for `O=[N+]([O-])c1ccc(Cl)c(Cl)c1` [DCNB, 1,2-dichloro-4-nitrobenzene], the Km at CpGSTD1 [8] turned out to be 170 ± 10 µM.

With `O=C(/C=C/c1ccccc1)c1ccccc1` [chalcone], the IC50 is 165 µM in the data set with GST-2, 12.1 ± 0.4 µM against CpGSTD1 [9], 166 µM in the data set on GST-1b and 4 ± 0.2 µM against CpGSTD2 [10].

`Clc1ccc(C(c2ccc(Cl)cc2)C(Cl)(Cl)Cl)cc1` [DDT, 1,1,1-Trichloro-2,2-bis(4-chlorophenyl)ethane]: the “rate of DDT metabolism to DDE” value on CpGSTD1 [11] came out at 6.4 ± 0.6 nmol per mg protein.

At CpGSTD2 [10], `C=C(CC)C(=O)c1ccc(OCC(=O)O)c(Cl)c1Cl` [ethacrynic acid (EA), ethacrynic acid] showed an IC50 of 2.5 ± 0.1 µM.

B1: CpGSTD2 (Culex pipiens) (protein)
chain: MNLYHMELSPPCQSVRLLAKTLNVPLNLIQLDLFKDEHLTPEFLKINPQHMVPTLVDGDFTLWESRAIMTYLYEKCAADDALYPRDPQKRALINQRLYFDMGTLYERFGLHYYPQAFEEKPVPEGTAKQFEEALQFLNTFLGQATYVAGEALSIADYAILTSITTFKVAAGVDLAKYANIERWYGLVSKSVPGHEEICVQGSKVFAPYFVDVKH
Usually kcat/Km stands for the second-order rate constant that governs catalysis at low substrate concentration. For the molecule B1, in data set [12], the Km was 220 ± 10 µM, the Vmax amounted to 0.96 ± 0.02 µmol/min/mg, the kcat was found to be 0.4 s⁻¹ and the kcat/Km was determined as 1700 M⁻¹ s⁻¹.
